Assay results taken from US10966955B2, “Ocular drug delivery system and uses thereof” (Chang Gung University, priority 2020, dated 2021).

Legend:
[1] = In vitro drug release of the ocular drug delivery system in sPLA2 solution (HPLC); assay type: physicochemical
Protocol: A suitable amount of the ocular drug delivery system obtained in Example 1 was immersed in 1 mL of a sPLA2 solution (containing 0.1 mg/mL sPLA2), followed by incubation at 37° C. with reciprocal shaking (100 rpm) in a thermostatically controlled water bath for a designated time period ranging from 0 minutes to 168 hours. Sample solutions were taken at each time point of 0, 1, 2, 3, 4, 5, 12, 24, 48, 72, 96, 120, 144, and 168 hours. The sample solutions thus obtained were centrifuged at 1000 rpm for 3 minutes. The resultant supernatants were collected and then subjected to high performance liquid chromatography (HPLC) analysis using a L-2400 UV detector, a L-2130 pump (Hitachi, Tokyo, Japan), and a Mightysil RP-18 column (Kanto Chemical, Tokyo, Japan). The HPLC operating conditions applied were described as follows. The mobile phase was 90% water with 0.1% trifluroacetic acid and 10% acetonitrile, and the flow rate of the mobile phase was 1 mL/min. The injection volume was 10 μL. The elution peak was detected by measuring absorbance at 280 nm (for EGCG), 305 nm (for β-1,3 glucan), and 274 nm (for SB-431542), respectively. The amount of EGCG released from the sPLA2 hydrolysable liposomes was calculated with reference to a standard calibration curve of EGCG. Results from five independent measurements were averaged and further used to calculate the cumulative released amount of EGCG.

[2] = In vitro drug release of the ocular drug delivery system in hyaluronidase solution (HPLC); assay type: physicochemical; conditions: for release rate compared with the other drugs (in words): hyaluronidase solution, EGCG in sPLA2 solution
Protocol: A suitable amount of the ocular drug delivery system obtained in Example 1 was immersed in 1 mL of a sPLA2 solution (containing 0.1 mg/mL sPLA2), followed by incubation at 37° C. with reciprocal shaking (100 rpm) in a thermostatically controlled water bath for a designated time period ranging from 0 minutes to 168 hours. Sample solutions were taken at each time point of 0, 1, 2, 3, 4, 5, 12, 24, 48, 72, 96, 120, 144, and 168 hours.
The sample solutions thus obtained were centrifuged at 1000 rpm for 3 minutes. The resultant supernatants were collected and then subjected to high performance liquid chromatography (HPLC) analysis using a L-2400 UV detector, a L-2130 pump (Hitachi, Tokyo, Japan), and a Mightysil RP-18 column (Kanto Chemical, Tokyo, Japan).
The HPLC operating conditions applied were described as follows. The mobile phase was 90% water with 0.1% trifluroacetic acid and 10% acetonitrile, and the flow rate of the mobile phase was 1 mL/min. The injection volume was 10 μL. The elution peak was detected by measuring absorbance at 280 nm (for EGCG), 305 nm (for β-1,3 glucan), and 274 nm (for SB-431542), respectively.
The release profile of β-1,3-glucan from the first HA-SH nanoparticles and the release profile of SB-431542 from the second HA-SH nanoparticles were evaluated substantially according to the procedures as described above, except that the ocular drug delivery system was immersed in 1 mL of a hyaluronidase solution (containing 100 U/mL hyaluronidase).

SIRC cells = experiment: Cell migration assay of SIRC cells; assay type: cell-based, rabbit; conditions: cell-free gap about 180 μm, 18 hours
Protocol: (b) Rabbit corneal epithelial (SIRC) cells (BCRC NO: 60093) were obtained from the Bioresources Collection and Research Center (BCRC) of Food Industry Research and Development Institute (FIRDI) (Hsinchu, Taiwan). The SIRC cells were grown in a regular growth medium containing minimum essential medium (MEM) and 10% fetal bovine serum (FBS), and were cultivated in a humidified atmosphere (5% CO2, 37° C.).
A cell culture insert was placed into each well of a 12-well culture plate. The SIRC cells were seeded into the culture tanks on both sides of the culture insert at a cell number of 1×10^4 cells and then incubated overnight to allow cell attachment. Thereafter, the culture insert was removed to create a cell-free gap with a width of about 180 μm, and then the liquid in each well was removed. Each well was washed three times with phosphate-buffered saline (PBS), followed by addition of 200 μL of Eagle's minimum essential medium (MEM). […]
At 0 and 18 hours after incubation, the cell migration profile of the SIRC cells in each group was photographed using an inverted phase contrast microscope (Nikon, Melville, N.Y., USA), and the width of the cell-free gap was measured by ImageJ software. The cell migration rate (%) was calculated using the following Equation (I): Cell migration rate (%)=[A−B)/A]×100 (I) […]

Compound | release of EGCG (in words) ([1]; within 8 hours following initiation of the release test, sPLA2 solution) | cumulative release rate of EGCG from the sPLA2 hydrolysable liposomes ([1]; within 20 hours, 0.1 mg/mL sPLA2 solution, 37° C.) [%] | cumulative release rate of SB-431542 from the second HA-SH nanoparticles ([2]; at the 160th hour after initiation of the release test, 100 U/mL hyaluronidase solution, 37° C.) [%] | release rate compared with the other drugs (in words) [2] | cumulative release rate of β-1,3 glucan from the first HA-SH nanoparticles ([2]; within 70 hours after initiation of the release test, 100 U/mL hyaluronidase solution, 37° C.) [%] | Cell migration rate (%) (SIRC cells)
O=C(O[C@@H]1Cc2c(O)cc(O)cc2O[C@@H]1c1cc(O)c(O)c(O)c1)c1cc(O)c(O)c(O)c1 [EGCG, epigallocatechin gallate] | released in a large amount | 90 |  |  |  | 
NC(=O)c1ccc(-c2nc(-c3ccc4c(c3)OCO4)c(-c3ccccn3)[nH]2)cc1 [SB-431542] |  |  | 80 | slower than those of EGCG and β-1,3 glucan |  | 
β-1,3-glucan [β-1,3 glucan] |  |  |  | slower than that of EGCG | 90 | 73
